Experimental findings from article PMC5748644, “Synthesis and In Vitro Cytotoxicity of the 4-(Halogenoanilino)-6-bromoquinazolines and Their 6-(4-Fluorophenyl) Substituted Derivatives as Potential Inhibitors of Epidermal Growth Factor Receptor Tyrosine Kinase” (Pharmaceuticals, 2017) are described below.

Each structure is given as a SMILES string.

T1 sequence (P00533 25-1210): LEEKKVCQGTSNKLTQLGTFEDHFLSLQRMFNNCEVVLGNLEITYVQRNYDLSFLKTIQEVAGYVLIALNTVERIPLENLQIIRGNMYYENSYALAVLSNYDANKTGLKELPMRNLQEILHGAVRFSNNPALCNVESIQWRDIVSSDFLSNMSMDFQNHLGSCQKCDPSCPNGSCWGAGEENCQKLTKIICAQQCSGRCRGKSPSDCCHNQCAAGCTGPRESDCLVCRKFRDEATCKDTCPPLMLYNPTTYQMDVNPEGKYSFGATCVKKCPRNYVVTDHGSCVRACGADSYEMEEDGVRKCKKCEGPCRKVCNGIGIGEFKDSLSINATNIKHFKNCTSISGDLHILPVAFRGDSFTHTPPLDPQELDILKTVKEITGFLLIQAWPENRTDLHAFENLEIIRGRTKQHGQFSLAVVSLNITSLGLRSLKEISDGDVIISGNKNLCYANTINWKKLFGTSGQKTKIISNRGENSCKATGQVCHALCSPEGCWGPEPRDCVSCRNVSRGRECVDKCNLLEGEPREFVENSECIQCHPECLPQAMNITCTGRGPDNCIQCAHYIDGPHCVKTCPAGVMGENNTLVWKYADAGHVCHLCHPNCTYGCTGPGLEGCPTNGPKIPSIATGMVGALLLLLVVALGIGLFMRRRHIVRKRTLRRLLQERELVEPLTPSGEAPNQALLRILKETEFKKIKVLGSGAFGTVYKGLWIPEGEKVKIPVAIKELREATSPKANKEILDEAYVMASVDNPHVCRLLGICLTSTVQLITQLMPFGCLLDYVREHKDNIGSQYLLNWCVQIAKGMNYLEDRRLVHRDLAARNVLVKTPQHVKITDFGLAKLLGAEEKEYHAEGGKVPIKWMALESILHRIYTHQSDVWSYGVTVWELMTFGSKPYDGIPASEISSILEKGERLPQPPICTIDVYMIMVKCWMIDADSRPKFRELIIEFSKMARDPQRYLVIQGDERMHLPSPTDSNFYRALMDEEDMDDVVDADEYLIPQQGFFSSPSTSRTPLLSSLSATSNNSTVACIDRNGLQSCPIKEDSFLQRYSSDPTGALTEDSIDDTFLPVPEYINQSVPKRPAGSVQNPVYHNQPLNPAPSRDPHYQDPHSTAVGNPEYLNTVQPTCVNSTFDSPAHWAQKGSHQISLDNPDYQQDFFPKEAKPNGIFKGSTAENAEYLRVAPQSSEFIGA

This assay addresses T1, epidermal growth factor receptor tyrosine kinase (EGFR-TK) (Homo sapiens, UniProt P00533).
T1 construct: commercial purified EGFR (Sigma-Aldrich), called both purified Epidermal Growth Factor Receptor and purified recombinant EGFR tyrosine kinase
In words: ELISA kinase assay, poly(Glu,Tyr) phosphorylation, anti-phosphotyrosine antibody, […] nm. It counts as biochemical.
`Fc1ccc(-c2ccc3nc(-c4ccc(Cl)cc4)nc(Nc4ccc(F)cc4F)c3c2)cc1` [4l, [2-(4-Chlorophenyl)-6-(4-fluorophenyl)quinazolin-4-yl]-2,4-difluorophenylamine]: the midpoint of inhibition, the IC50, lay at 59.2 nM.

Take `Fc1ccccc1Nc1nc(-c2ccc(Cl)cc2)nc2ccc(Br)cc12` [3g, 6-Bromo-2-(4-chlorophenyl)-N-(2-fluorophenyl)quinazolin-4-amine]: the IC50 (usually the concentration at which inhibition is half-maximal) was determined as 70 nM.

Compound `Fc1ccc(Nc2nc(-c3ccc(Cl)cc3)nc3ccc(Br)cc23)c(F)c1` [3l, 6-Bromo-2-(4-chlorophenyl)-N-(2,4-difluorophenyl)quinazolin-4-amine] came in with an IC50 of 37.7 nM.
